Source: ChEMBL document CHEMBL1201862, “PubChem BioAssay data set” (2004)
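Interpolation was linear, between the two tested concentrations surrounding the appropriate level; five concentrations were tested over 48 hours in 96-well plates. GI50 marks 50% less growth.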 Calls of active or inactive are those of the source. Rule as the data show it: active = GI50 up to about 1.1 µM and inactive = higher.

Columns and labels:
Assay in all cases: inhibition of tumour cell growth, NCI panel, 48 h
MDA-MB-435 = test system: MDA-MB-435
BT-549 = test system: BT-549
NCI-H23 = test system: NCI-H23
RXF 393 = test system: RXF 393
MCF7 = test system: MCF7
Malme-3M = test system: Malme-3M
OVCAR-4 = test system: OVCAR-4
SK-MEL-28 = test system: SK-MEL-28
RPMI-8226 = test system: RPMI-8226
U-251 = test system: U-251
NCI-H522 = test system: NCI-H522
A549 = test system: A549
KM12 = test system: KM12
LOX IMVI = test system: LOX IMVI
SN12C = test system: SN12C
UACC-62 = test system: UACC-62
HOP-62 = test system: HOP-62
ACHN = test system: ACHN
NCI-H460 = test system: NCI-H460
EKVX = test system: EKVX
SK-MEL-2 = test system: SK-MEL-2
CAKI-1 = test system: CAKI-1
TK-10 = test system: TK-10
SK-OV-3 = test system: SK-OV-3
OVCAR-8 = test system: OVCAR-8
UACC-257 = test system: UACC-257
Hs-578T = test system: Hs-578T
PC-3 = test system: PC-3
786-0 = test system: 786-0
T47D = test system: T47D
HOP-92 = test system: HOP-92
DU-145 = test system: DU-145
UO-31 = test system: UO-31
COLO 205 = test system: COLO 205
HCC 2998 = test system: HCC 2998
MDA-MB-231 = test system: MDA-MB-231
NCI-H226 = test system: NCI-H226
MDA-N = test system: MDA-N
SF-295 = test system: SF-295
CCRF-CEM = test system: CCRF-CEM
MOLT-4 = test system: MOLT-4
HCT-116 = test system: HCT-116
SR = test system: SR
A498 = test system: A498
HCT-15 = test system: HCT-15
IGROV-1 = test system: IGROV-1
K562 = test system: K562
HL-60 = test system: HL-60
NCI/ADR-RES = test system: NCI/ADR-RES
M14 = test system: M14
SK-MEL-5 = test system: SK-MEL-5
SF-268 = test system: SF-268
SW-620 = test system: SW-620
OVCAR-5 = test system: OVCAR-5
HT-29 = test system: HT-29
SNB-19 = test system: SNB-19
SNB-75 = test system: SNB-75
SF-539 = test system: SF-539
OVCAR-3 = test system: OVCAR-3

**Q.** Which GI50 (MDA-MB-435) does the source give for `Cc1cc(C)c(C2=NOC(c3ccccc3)(c3cc(=O)n(-c4ccccc4)s3)O2)c(C)c1` (stereo not given) here?
**A.** 48.3 µM (inactive)

**Q.** What about the GI50 (BT-549) of the same molecule?
**A.** 24.8 µM (inactive)

**Q.** And the GI50 (NCI-H23)?
**A.** 20.6 µM (inactive)

**Q.** What about the GI50 (RXF 393) of the same molecule?
**A.** 17.3 µM (inactive)

**Q.** And the GI50 (MCF7)?
**A.** 18.6 µM (inactive)

**Q.** What about the GI50 (Malme-3M) of the same molecule?
**A.** 18.8 µM (inactive)

**Q.** And the GI50 (OVCAR-4)?
**A.** 53.1 µM (inactive)

**Q.** And the GI50 (SK-MEL-28)?
**A.** 32 µM (inactive)

**Q.** What about the GI50 (RPMI-8226) of the same molecule?
**A.** 37 µM (inactive)

**Q.** And the GI50 (U-251)?
**A.** 24.7 µM (inactive)

**Q.** And the GI50 (NCI-H522)?
**A.** 17.5 µM (inactive)

**Q.** What about the GI50 (A549) of the same molecule?
**A.** 29.5 µM (inactive)

**Q.** And the GI50 (KM12)?
**A.** 37 µM (inactive)

**Q.** And the GI50 (LOX IMVI)?
**A.** 15.8 µM (inactive)

**Q.** And the GI50 (SN12C)?
**A.** 33 µM (inactive)

**Q.** What about the GI50 (UACC-62) of the same molecule?
**A.** 23.2 µM (inactive)

**Q.** What about the GI50 (HOP-62) of the same molecule?
**A.** 33.2 µM (inactive)

**Q.** What about the GI50 (ACHN) of the same molecule?
**A.** 24.2 µM (inactive)

**Q.** What about the GI50 (NCI-H460) of the same molecule?
**A.** 43.1 µM (inactive)

**Q.** And the GI50 (EKVX)?
**A.** 21.9 µM (inactive)

**Q.** And the GI50 (SK-MEL-2)?
**A.** 28 µM (inactive)

**Q.** And the GI50 (CAKI-1)?
**A.** 17.2 µM (inactive)

**Q.** And the GI50 (TK-10)?
**A.** 25.1 µM (inactive)

**Q.** What about the GI50 (SK-OV-3) of the same molecule?
**A.** > 100 µM (inactive)

**Q.** And the GI50 (OVCAR-8)?
**A.** 18.7 µM (inactive)

**Q.** And the GI50 (UACC-257)?
**A.** 38.9 µM (inactive)

**Q.** What about the GI50 (Hs-578T) of the same molecule?
**A.** 52.6 µM (inactive)

**Q.** What about the GI50 (PC-3) of the same molecule?
**A.** 30.9 µM (inactive)

**Q.** What about the GI50 (786-0) of the same molecule?
**A.** 19 µM (inactive)

**Q.** And the GI50 (T47D)?
**A.** 17.3 µM (inactive)

**Q.** What about the GI50 (HOP-92) of the same molecule?
**A.** 23.2 µM (inactive)

**Q.** What about the GI50 (DU-145) of the same molecule?
**A.** 32.1 µM (inactive)

**Q.** And the GI50 (UO-31)?
**A.** 20.8 µM (inactive)

**Q.** And the GI50 (COLO 205)?
**A.** 23.6 µM (inactive)

**Q.** What about the GI50 (HCC 2998) of the same molecule?
**A.** 32.5 µM (inactive)

**Q.** What about the GI50 (MDA-MB-231) of the same molecule?
**A.** 30.8 µM (inactive)

**Q.** And the GI50 (NCI-H226)?
**A.** 31.5 µM (inactive)

**Q.** What about the GI50 (MDA-N) of the same molecule?
**A.** 38.8 µM (inactive)

**Q.** What about the GI50 (SF-295) of the same molecule?
**A.** > 100 µM (inactive)

**Q.** And the GI50 (CCRF-CEM)?
**A.** 23.8 µM (inactive)

**Q.** And the GI50 (MOLT-4)?
**A.** 41.9 µM (inactive)

**Q.** What about the GI50 (HCT-116) of the same molecule?
**A.** > 100 µM (inactive)

**Q.** And the GI50 (SR)?
**A.** 89.7 µM (inactive)

**Q.** What about the GI50 (A498) of the same molecule?
**A.** > 100 µM (inactive)

**Q.** What about the GI50 (HCT-15) of the same molecule?
**A.** 19.3 µM

**Q.** And the GI50 (IGROV-1)?
**A.** 37.1 µM (inactive)

**Q.** And the GI50 (K562)?
**A.** > 100 µM (inactive)

**Q.** And the GI50 (HL-60)?
**A.** 22.1 µM (inactive)

**Q.** What about the GI50 (NCI/ADR-RES) of the same molecule?
**A.** 23.3 µM (inactive)

**Q.** What about the GI50 (M14) of the same molecule?
**A.** 27 µM (inactive)

**Q.** And the GI50 (SK-MEL-5)?
**A.** 74 µM (inactive)

**Q.** What about the GI50 (SF-268) of the same molecule?
**A.** 44.2 µM (inactive)

**Q.** And the GI50 (SW-620)?
**A.** 26.4 µM (inactive)

**Q.** What about the GI50 (OVCAR-5) of the same molecule?
**A.** 18 µM (inactive)

**Q.** What about the GI50 (HT-29) of the same molecule?
**A.** 18.8 µM (inactive)

**Q.** What about the GI50 (SNB-19) of the same molecule?
**A.** 50.6 µM (inactive)

**Q.** What about the GI50 (SNB-75) of the same molecule?
**A.** 26.5 µM (inactive)

**Q.** For `SC1=Nc2ccccc2-c2nc(-c3cccc(Cl)c3)cc(-c3ccccc3)c2C1`, which GI50 (MDA-MB-435) is on record?
**A.** 9.02 µM (inactive)

**Q.** What about the GI50 (BT-549) of the same molecule?
**A.** 5 µM (inactive)

**Q.** And the GI50 (NCI-H23)?
**A.** 5.07 µM (inactive)

**Q.** And the GI50 (RXF 393)?
**A.** 2.81 µM (inactive)

**Q.** And the GI50 (MCF7)?
**A.** 5.04 µM (inactive)

**Q.** And the GI50 (Malme-3M)?
**A.** 4.35 µM (inactive)

**Q.** What about the GI50 (OVCAR-4) of the same molecule?
**A.** 0.347 µM (active)

**Q.** And the GI50 (SK-MEL-28)?
**A.** 9.12 µM (inactive)

**Q.** And the GI50 (RPMI-8226)?
**A.** 3.2 µM (inactive)

**Q.** What about the GI50 (U-251) of the same molecule?
**A.** 1.19 µM (inactive)

**Q.** What about the GI50 (NCI-H522) of the same molecule?
**A.** 2.06 µM (inactive)

**Q.** And the GI50 (A549)?
**A.** 1.75 µM (inactive)

**Q.** What about the GI50 (KM12) of the same molecule?
**A.** 4.53 µM (inactive)

**Q.** What about the GI50 (LOX IMVI) of the same molecule?
**A.** 3.15 µM (inactive)

**Q.** And the GI50 (SN12C)?
**A.** 2.08 µM (inactive)

**Q.** What about the GI50 (UACC-62) of the same molecule?
**A.** 1.61 µM (inactive)

**Q.** And the GI50 (HOP-62)?
**A.** 1.86 µM (inactive)

**Q.** And the GI50 (ACHN)?
**A.** 0.811 µM (active)

**Q.** And the GI50 (NCI-H460)?
**A.** 1.3 µM (inactive)

**Q.** And the GI50 (EKVX)?
**A.** 3.54 µM (inactive)

**Q.** And the GI50 (SK-MEL-2)?
**A.** 5.25 µM (inactive)

**Q.** And the GI50 (CAKI-1)?
**A.** 2 µM (inactive)

**Q.** And the GI50 (SK-OV-3)?
**A.** 2.11 µM (inactive)

**Q.** And the GI50 (OVCAR-8)?
**A.** 1.07 µM (active)

**Q.** And the GI50 (UACC-257)?
**A.** 5.9 µM (inactive)

**Q.** And the GI50 (Hs-578T)?
**A.** 2.05 µM (inactive)

**Q.** And the GI50 (PC-3)?
**A.** 7.57 µM (inactive)

**Q.** And the GI50 (786-0)?
**A.** 0.971 µM (active)

**Q.** What about the GI50 (T47D) of the same molecule?
**A.** 2.19 µM (inactive)

**Q.** What about the GI50 (HOP-92) of the same molecule?
**A.** 1.09 µM (active)

**Q.** What about the GI50 (SF-539) of the same molecule?
**A.** 1.69 µM (inactive)

**Q.** And the GI50 (DU-145)?
**A.** 5.36 µM (inactive)

**Q.** What about the GI50 (UO-31) of the same molecule?
**A.** 1.93 µM (inactive)

**Q.** And the GI50 (COLO 205)?
**A.** 7.82 µM (inactive)

**Q.** What about the GI50 (HCC 2998) of the same molecule?
**A.** 3.24 µM (inactive)

**Q.** What about the GI50 (MDA-MB-231) of the same molecule?
**A.** 1.64 µM (inactive)

**Q.** And the GI50 (NCI-H226)?
**A.** 3.68 µM (inactive)

**Q.** And the GI50 (MDA-N)?
**A.** 3.48 µM (inactive)

**Q.** And the GI50 (SF-295)?
**A.** 3.37 µM (inactive)

**Q.** What about the GI50 (CCRF-CEM) of the same molecule?
**A.** 2.36 µM (inactive)

**Q.** And the GI50 (MOLT-4)?
**A.** 19.6 µM (inactive)

**Q.** And the GI50 (HCT-116)?
**A.** 1.64 µM (inactive)

**Q.** What about the GI50 (SR) of the same molecule?
**A.** 11.2 µM (inactive)

**Q.** And the GI50 (A498)?
**A.** 2.02 µM (inactive)

**Q.** What about the GI50 (HCT-15) of the same molecule?
**A.** 7.08 µM

**Q.** What about the GI50 (IGROV-1) of the same molecule?
**A.** 0.678 µM (active)

**Q.** What about the GI50 (K562) of the same molecule?
**A.** 4.86 µM (inactive)

**Q.** What about the GI50 (HL-60) of the same molecule?
**A.** 15 µM (inactive)

**Q.** And the GI50 (OVCAR-3)?
**A.** 3.4 µM (inactive)

**Q.** What about the GI50 (NCI/ADR-RES) of the same molecule?
**A.** 2.04 µM (inactive)

**Q.** And the GI50 (M14)?
**A.** 4.61 µM (inactive)

**Q.** What about the GI50 (SK-MEL-5) of the same molecule?
**A.** 26.8 µM (inactive)

**Q.** And the GI50 (SF-268)?
**A.** 3.79 µM (inactive)

**Q.** What about the GI50 (SW-620) of the same molecule?
**A.** 2.98 µM (inactive)

**Q.** What about the GI50 (OVCAR-5) of the same molecule?
**A.** 5.77 µM (inactive)

**Q.** And the GI50 (HT-29)?
**A.** 2.38 µM (inactive)

**Q.** What about the GI50 (SNB-19) of the same molecule?
**A.** 1.2 µM (inactive)

**Q.** And the GI50 (SNB-75)?
**A.** 1.83 µM (inactive)
